Measurements published in patent publication US11103497B2, “Treatment of imatinib resistant leukemia” (Wyeth LLC, priority 2007, dated 2021).
Where two headings read alike, the source gives them in different places.

Assays:
BcrAbl [1] = tested on: BcrAbl
Description: Bone marrow morphology is used to determine the blast and immature myeloid cell counts in order to define disease phases.
(§1) Standard cytogenetics are used to determine the presence of the Philadelphia chromosome and its percent presence in marrow. Twenty or more metaphases should be counted for this determination. FISH (Fluorescent in situ hybridization) analysis may be used to confirm presence of BcrAbl fusion product.
(§2) Cytogenetic response to treatment. As used herein, a “cytogenetic response to treatment” indicates a relative disappearance of the Philadelphia chromosome in treated subjects as determined by a percentage of Philadelphia chromosome positive cells present. The response can be minimal, minor, partial or complete. […] These figures for % positive are based on analysis of 20 metaphases (per subject?). A fluorescence in situ hybridization (FISH)-based assay can be used to qualify response if insufficient metaphases are available.
(§3) Hematologic Responses to treatment.
The baseline bcr/abl gene was sequenced and point mutations were recorded.

[2] = tested on: imatininb resistant CML cell lines; settings: cell lines having certain mutations associated with imatinib resistance; cited from earlier work
BcrAbl [3] = type: in vivo, human
Description: as §1, §2, §3

[4] = mutation Y253{H, F}, follow on data

COc1cc(Nc2c(C#N)cnc3cc(OCCCN4CCN(C)CC4)c(OC)cc23)c(Cl)cc1Cl [SKI-606, 4-[(2,4-Dichloro-5-methoxy-phenyl)amino]-6-methoxy-7-[3-(4-methyl-1-piperazinyl)propoxy]-3-quinolinecarbonitrile]
heme responders per subjects assessed as per TABLE 1 (BcrAbl [1]; mutation I432T): 1 out of 1
heme responders per subjects assessed as per TABLE 1 (BcrAbl [1]; mutation K263E): 1 out of 1
cytogenetic responders per subjects assessed as per TABLE 1 (BcrAbl [1]; mutation L273M): 1 out of 1
heme responders per subjects assessed as per TABLE 1 (BcrAbl [1]; mutation L273M): 1 out of 1
cytogenetic responders per subjects assessed as per TABLE 1 (BcrAbl [1]; mutation M244V): 1 out of 1
heme responders per subjects assessed as per TABLE 1 (BcrAbl [1]; mutation M244V): 1 out of 1
cytogenetic responders per subjects assessed as per TABLE 1 (BcrAbl [1]; mutation T315I): 1 out of 1
heme responders per subjects assessed as per TABLE 1 (BcrAbl [1]; mutation T315I): 1 out of 2
cytogenetic responders per subjects assessed as per TABLE 1 (BcrAbl [1]; mutation Y253{H, F}): 1 out of 2
heme responders per subjects assessed as per TABLE 1 (BcrAbl [1]; mutation Y253{H, F}): 2 out of 2
cytogenetic or hematologic responses (BcrAbl [1]; patients harboring at least one of nineteen unique point mutations of the bcr/abl gene, 400-600 mg per day): resulted in cytogenetic or hematologic responses
response to treatment (BcrAbl [1]; some imatinib resistant patients not having one of the known resistance-associated mutations): responded favorably
replication of imatinib resistant CML cell lines [2]: effective at reducing replication
cytogenetic responders per subjects assessed (BcrAbl [3]; mutation E255K, follow on data): 2 out of 2
heme responders per subjects assessed (BcrAbl [3]; mutation E255K, follow on data): 2 out of 3
heme responders per subjects assessed (BcrAbl [3]; mutation E255V): 1 out of 2
cytogenetic responders per subjects assessed (BcrAbl [3]; mutation E286G): 1 out of 1
heme responders per subjects assessed (BcrAbl [3]; mutation E286G): 1 out of 1
cytogenetic responders per subjects assessed (BcrAbl [3]; mutation E355G): 0 out of 1
heme responders per subjects assessed (BcrAbl [3]; mutation E355G): 1 out of 1
cytogenetic responders per subjects assessed (BcrAbl [3]; mutation E453K): 1 out of 1
heme responders per subjects assessed (BcrAbl [3]; mutation E453K): 1 out of 1
cytogenetic responders per subjects assessed (BcrAbl [3]; mutation F317L, follow on data): 1 out of 6
heme responders per subjects assessed (BcrAbl [3]; mutation F317L, follow on data): 7 out of 8
cytogenetic responders per subjects assessed (BcrAbl [3]; mutation F359I): 1 out of 1
heme responders per subjects assessed (BcrAbl [3]; mutation F359I): 1 out of 1
cytogenetic responders per subjects assessed (BcrAbl [3]; mutation F359V, follow on data): 3 out of 4
heme responders per subjects assessed (BcrAbl [3]; mutation F359V, follow on data): 5 out of 5
cytogenetic responders per subjects assessed (BcrAbl [3]; mutation F486S, follow on data): 1 out of 2
heme responders per subjects assessed (BcrAbl [3]; mutation F486S, follow on data): 1 out of 2
cytogenetic responders per subjects assessed (BcrAbl [3]; mutation G250E, follow on data): 0 out of 1
heme responders per subjects assessed (BcrAbl [3]; mutation G250E, follow on data): 2 out of 2
cytogenetic responders per subjects assessed (BcrAbl [3]; mutation G321R): 0 out of 1
heme responders per subjects assessed (BcrAbl [3]; mutation G321R): 1 out of 1
cytogenetic responders per subjects assessed (BcrAbl [3]; mutation H396P, follow on data): 1 out of 1
heme responders per subjects assessed (BcrAbl [3]; mutation H396P, follow on data): 1 out of 1
cytogenetic responders per subjects assessed (BcrAbl [3]; mutation H396R): 0 out of 2
heme responders per subjects assessed (BcrAbl [3]; mutation H396R): 1 out of 1
cytogenetic responders per subjects assessed (BcrAbl [3]; mutation I432T, follow on data): 0 out of 1
heme responders per subjects assessed (BcrAbl [3]; mutation I432T, follow on data): 1 out of 1
cytogenetic responders per subjects assessed (BcrAbl [3]; mutation K263E, follow on data): 1 out of 1
heme responders per subjects assessed (BcrAbl [3]; mutation K263E, follow on data): 1 out of 1
cytogenetic responders per subjects assessed (BcrAbl [3]; mutation L248V, follow on data): 1 out of 3
heme responders per subjects assessed (BcrAbl [3]; mutation L248V, follow on data): 2 out of 2
cytogenetic responders per subjects assessed (BcrAbl [3]; mutation L273M, follow on data): 1 out of 1
heme responders per subjects assessed (BcrAbl [3]; mutation L273M, follow on data): 1 out of 1
cytogenetic responders per subjects assessed (BcrAbl [3]; mutation L384P): 0 out of 1
heme responders per subjects assessed (BcrAbl [3]; mutation L384P): 0 out of 1
cytogenetic responders per subjects assessed (BcrAbl [3]; mutation L387V): 0 out of 1
heme responders per subjects assessed (BcrAbl [3]; mutation L387V): 1 out of 1
cytogenetic responders per subjects assessed (BcrAbl [3]; mutation M244V, follow on data): 4 out of 4
heme responders per subjects assessed (BcrAbl [3]; mutation M244V, follow on data): 4 out of 4
cytogenetic responders per subjects assessed (BcrAbl [3]; mutation M351T, follow on data): 4 out of 6
heme responders per subjects assessed (BcrAbl [3]; mutation M351T, follow on data): 5 out of 5
cytogenetic responders per subjects assessed (BcrAbl [3]; mutation N331S, follow on data): 1 out of 1
cytogenetic responders per subjects assessed (BcrAbl [3]; mutation T277A): 1 out of 1
heme responders per subjects assessed (BcrAbl [3]; mutation T277A): 1 out of 1
cytogenetic responders per subjects assessed (BcrAbl [3]; mutation T315I, follow on data): 3 out of 3
heme responders per subjects assessed (BcrAbl [3]; mutation T315I, follow on data): 5 out of 9
cytogenetic responders per subjects assessed (BcrAbl [3]; mutation V299L): 0 out of 1
heme responders per subjects assessed (BcrAbl [3]; mutation V299L): 0 out of 1
cytogenetic responders per subjects assessed (BcrAbl [3]; mutation Y230H): 0 out of 1
heme responders per subjects assessed (BcrAbl [3]; mutation Y230H): 1 out of 1
cytogenetic responders per subjects assessed (BcrAbl [3]; [4]): 3 out of 3
heme responders per subjects assessed (BcrAbl [3]; [4]): 3 out of 3
